# Experimental data as given in patent US8512961B2, “Methods of detecting and treatment of cancers using Scutellaria barbata extract” (Bionovo, Inc., priority 2007, dated 2013).
# Assays:
# ROS = ROS generation, staining with ROS-sensitive probe CM-H2DCFDA; type: cell-based; settings: incubation of cells prior to addition of BZL101; SKBr3 cells
# DNA = DNA damage, comet formation; type: cell-based; settings: for effect on comet formation induced by BZL101: cells pretreated prior to the addition of BZL101
# Text: There is a different fold increase of ROS levels in different cells treated with BZL101 compared to control untreated cells. It is of particular interest that the increase in ROS correlates well with the degree of DNA damage induced in these cells.
# To further implicate ROS in the induction of DNA damage, comet formation in cells pretreated with the antioxidants NAC and pyruvate prior to the addition of BZL101 were examined.
# SKBr3 cells = assay: 8-oxoguanine, flow cytometry with avidin fluorescein; type: cell-based, human; settings: cells pretreated prior to addition of BZL101
# Experimental: To verify that BZL101 leads to oxidative DNA damage, it was determined whether the DNA of BZL101-treated cells contains 8-oxoguanine, the most ubiquitous marker of DNA oxidation. […] (See FIG. 9). […] (See FIG. 10). Analysis of the 8-oxoguanidine and apurininc/apyrimidinic (AP) bases in DNA. The Calbiochem kit was used for staining of the fixed and permeabilized cells with avidin fluorescein. Quantification of apurinic/[…] nucleotides in genomic DNA was performed using the DNA damage quantification kit from BioVision Research Products.
Structure (SMILES),effect on BZL101-induced ROS generation (ROS),effect on comet formation induced by BZL101 (DNA),"DNA damage repair in cancer cells (DNA; in the presence of the antioxidant, BZL101-treated cancer cells)",effect on BZL101-induced increase in avidin binding (8-oxoguanine) (SKBr3 cells)
"CC(=O)N[C@@H](CS)C(=O)O [NAC, N-acetyl-cysteine]",prevented most of the increase in ROS generation,significantly reduced the number of cells forming comets,greatly accelerated,completely abolished
CC1(C)N([O])C(c2ccccc2)=[N+]([O-])C1(C)C [PTIO],–,no effect,–,–
